Several values for one entry are separate records, joined by “and”; a condition that tells them apart may be missing. Equal entries are not always repeated.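 Grown in 96-well plates, cells were treated for 48 hours with each compound at five concentrations. Insufficient inhibition: endpoint recorded as highest concentration tested. GI50: concentration for 50% inhibition of growth. TGI is the concentration that stops growth completely.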
What was measured:
Assay in all cases: NCI tumour cell line growth inhibition, 48 h
[1] = system: 786-0 renal
[2] = system: BT-549 breast
[3] = system: HCT-116 colon
[4] = system: HT29 colon
[5] = system: IGROV1 ovarian
[6] = system: MCF7 breast
[7] = system: NCI-H460 lung
[8] = system: SNB-19 CNS
[9] = system: T-47D breast
[10] = system: U251 CNS

| SMILES | GI50 [1] [µM] | TGI [1] | GI50 [2] [µM] | TGI [2] [µM] | GI50 [3] [µM] | TGI [3] [µM] | GI50 [4] [µM] | TGI [4] [µM] | GI50 [5] [µM] | TGI [5] | GI50 [6] [µM] | TGI [6] [µM] | GI50 [7] [µM] | TGI [7] | GI50 [8] [µM] | TGI [8] | GI50 [9] [µM] | TGI [9] [µM] | GI50 [10] [µM] | TGI [10] |
| --- | --- | --- | --- | --- | --- | --- | --- | --- | --- | --- | --- | --- | --- | --- | --- | --- | --- | --- | --- | --- |
| O=c1[nH]cnc2c(C3NC(CO)C(O)C3O)c[nH]c12 (configuration not stated) | > 100 | > 100 µM | > 100 | > 100 | > 100 | > 100 | > 100 | > 100 | > 100 | > 100 µM | > 100 | > 100 | > 100 | > 100 µM | > 100 | > 100 µM | > 100 | > 100 | > 100 | > 100 µM |
| O=C1NC(=O)C(c2cccc(Cl)c2)=C1Nc1ccc(O)c(Cl)c1 | 12.1 | > 25 µM | 11.3 | > 25 | 9.6 | > 25 | 10 | > 25 | 12.9 | > 25 µM | 10.4 | > 25 | 8.91 | > 25 µM | 15.9 | > 25 µM | 7.98 | > 23.1 | 12.5 | > 25 µM |
| COc1cc(/C=C/[N+](=O)[O-])cc(Br)c1OC | 1.95 | 3.54 µM | 2.77 | 6.62 | 1.78 | 3.22 | 1.81 | 3.57 | 1.84 | 4.54 µM | 1.93 | 7.43 | 3.48 | 11.4 µM | 6.93 | 19.2 µM | 2.57 | 8.48 | 1.77 | 3.75 µM |
| CN(CCCCCl)P(=O)(OCCS(=O)(=O)CC(NC(=O)CCC(N)C(=O)O)C(=O)NC(C(=O)O)c1ccccc1)OCC1OC(n2cc(F)c(=O)[nH]c2=O)CC1O (configuration not stated) | 0.0155 | 2.62 µM | 15.3 | > 94.7 | 0.161 | 39.9 | 2.68 | > 100 | 0.0884 | > 100 µM | < 0.01 | – | < 0.01 | – | 1.3 | > 100 µM | 5.65 | > 100 | < 0.0171 | > 41.6 µM |
| CC1(C)N=C(N)N=C(N)N1c1ccc(CCCCc2ccc(S(=O)(=O)F)cc2)c(Cl)c1 | 0.224 | 19.3 µM | 9.61 | 22.5 | 0.0483 | 18.9 | 0.0566 | 15.3 | 0.0592 | 21.5 µM | 0.198 | 14.2 | 0.0399 | 12.6 µM | 0.773 | 19.1 µM | 2.05 | 15.2 | 0.0936 | 16.4 µM |
| Nc1ccc(-c2nc3ccccc3[nH]2)c2ccccc12 | 4.02 | > 41.4 µM | 2.39 | 22.5 | 3.3 | 12.6 | 1.49 | 14.6 | 3.36 | 42.6 µM | 2.38 | > 100 | 3.9 | > 100 µM | 3.57 | > 100 µM | 11.6 | > 61.6 | 4.12 | 30.6 µM |
| N/N=C1\CC(=O)NC(=O)N1 | – | > 100 µM | – | > 100 | – | > 100 | – | > 100 | – | > 100 µM | – | > 100 | – | > 100 µM | – | > 100 µM | – | > 100 | – | > 100 µM |
| O=C(Oc1cccnc1)c1ccsc1Nc1ccnc(C(F)(F)F)c1 | 53 | > 100 µM | 5.36 | > 100 | 3.95 | > 100 | 2.39 | 6.34 | 5.24 | > 100 µM | 3.51 | > 100 | 17.7 | > 100 µM | 20.7 | > 100 µM | 13.8 | 68 | 3.91 | 18.7 µM |
| CC(=O)c1c(C(F)(F)F)n([O-])c2ccc(C)cc2[n+]1=O | 1.47 | 4.7 µM | 2.54 | 8.66 | 3.89 | > 41.1 | 4.96 | > 100 | 4.14 | > 100 µM | 4 | > 100 | 1.39 | > 39.8 µM | 6.03 | > 100 µM | 6.52 | > 67.1 | 2.79 | > 35.4 µM |
| N#CN1CC[C@H](C(=O)Nc2ncc(-c3ccncc3)s2)C1 | 0.0415 | 2.33 µM | < 0.0116 | 0.188 | 0.0401 | 3.2 | < 0.0197 | 1.96 | 0.0351 | 68.4 µM | < 0.0109 | > 70.2 | < 0.0208 | 14.3 µM | 0.415 | > 69.6 µM | < 0.0177 | 1.24 | 0.0853 | 53.5 µM |
| COc1ccc2c(c1OC)C(=O)OC2C1c2c(c([N+](=O)[O-])c3c(c2OC)OCO3)CCN1C (configuration not stated) | > 100 | > 100 µM | > 100 | > 100 | > 100 | > 100 | 28.7 | > 100 | – | – | > 100 | > 100 | > 100 | > 100 µM | > 100 | > 100 µM | 54.1 | > 100 | > 100 | > 100 µM |
| C/C1=C\[C@@H](O)C(=O)/C=C/C=C\c2csc(n2)[C@@H](C)NC(=O)C[C@@]2(CC1)S(=O)SC(=O)[C@]2(C)O (some centres not stated) | – | 0.0354 µM and 0.0108 µM | – | 0.0062 | 0.0045 | 0.0259 | – | – | 0.0237 | 0.552 µM and 0.23 µM | – | 0.0101 | – | 0.27 µM and 0.327 µM | 1.15 | 0.511 µM and 2.87 µM | – | 0.0217 | 0.0122 | 0.209 µM and 0.267 µM |
| CCC1(O)C(=O)OCc2c1cc1n(c2=O)Cc2cc3cc(N)ccc3nc2-1 (configuration not stated) | – | 0.0469 µM | – | 0.0931 | – | – | – | – | – | > 55.2 µM | – | > 54.3 | – | 0.189 µM | – | 3.36 µM | – | > 100 | – | 0.129 µM |

— PubChem BioAssay (NCI)
